Assay results published in patent publication US10111933B2, “Use of growth hormone fragments” (Metabolic Pharmaceuticals Pty Ltd, priority 2011, dated 2018).
“Also recorded” adds a separate entry of the source. Ends that are not written are not given here.

Experiments:
C57Bl/6J (Ob/Ob) mouse = settings: cited from earlier work
C2C12 cells [1] = experiment: C2C12 cell proliferation (DNA content); assay type: cell-based; settings: 10 and 100 μg/ml, 3 days, FIG. 12
Method: C2C12 were grown in monolayer culture in DMEM (high glucose) supplemented with 10% fetal bovine serum under standard cell culture conditions. The cells were passaged at 60-70% confluence. The effect of AOD9604 (SEQ ID NO: 1) on cell proliferation was determined by growing the cells (3000 cells/cm^2) in the absence or presence of AOD9604 (10 and 100 μg/ml) for 3 days. The DNA content was then quantified. The cells were digested by papain and DNA content determined using the Hoechst 33258 dye binding assay (Polysciences) and fluorometry (excitation 365 nm, emission 458 nm).
(§1) The data was expressed as mean±SD. The data was expressed as mean±SD. Significance was determined using two way ANOVA followed by Tukey's post hoc test when multiple groups were being evaluated. T test was utilized if 2 groups were being compared. Significance was assigned at p values <0.05.

C2C12 cells [2] = experiment: C2C12 myotube quantification (Bodipy staining); assay type: cell-based; settings: over 72 hours, FIG. 11
Method: For myotube quantification the cells were stained with Bodipy (Invitrogen, 1/1000 PBS) according to the manufacturer's directions. The number of myotubes that developed over 72 hours was determined and expressed as a percent of total cells in culture (n=3, 100 cells/culture).
as §1

1.5 cm tear on soleus = experiment: Case study: calf muscle (soleus) tear; assay type: in vivo, human; settings: transdermal 600 mcg per dose twice daily, total 20 ml
Description: The subject was a professional footballer. The athlete incurred at 1.5 cm tear on their soleus near the adjacent aponeurosis to the gastrocnemius. […] A 1.5 cm tear is considered a moderately large tear for the region. […] The fibre tears were directional with the orientation of the fibres. The length of the tear was 1.5 cm.
The subject undertook an intervention of AOD9604 (SEQ ID NO: 1) at 600 mcg per dose. He applied one ml twice daily. The transdermal application was at 600 mcg per ml. The total application was 20 ml.

[3] = tested on: Cartilage explants (native cartilage); experiment: Native cartilage explant culture; assay type: cell-based, calf
Method: Cartilage explants were taken from calf metacarpal-carpal joints and placed in culture in Ham's F-12 supplemented with 20% fetal bovine serum (FBS) in the presence and absence of AOD9604 (SEQ ID NO: 1) (10 or 100 μg/ml) for 1 week or (100 or 500 μg/ml) for 2 weeks.
(§2) The tissue was harvested and water content and dry weight measured. The tissue was then digested with papain (Sigma, 40 μg/ml) for 48 h at 65° C. DNA content was determined using the Hoechst 33258 dye binding assay (Polysciences) and fluorometry (excitation 365 nm, emission 458 nm). Proteoglycan content was determined by measuring the amount of sulphated glycosaminoglycans using the dimethylmethylene blue dye binding assay and spectrophotometry (525 nm). Collagen content was determined by measuring the hydroxyproline content of an aliquot of the papain digest hydrolyzed in 6N HCl for 18 h at 110° C. The hydroxyproline content was determined using the chloramine-T/Ehrlich's reagent assay and spectrophotometry (560 nm). The cellularity was quantified by measuring the DNA content using Hoescht 33258 dye binding assay (Polysciences) and fluorometry (excitation 365 nm, emission 458 nm.
(§3) All experiments were done three times and each condition was done in triplicate. The data was expressed as mean±SD. […]. Significance was determined using two way ANOVA followed by Tukey's post hoc test when multiple groups were being evaluated. T test was utilized if 2 groups were being compared. Significance was assigned at p values <0.05.

[4] = tested on: contusion to the rectus femoris; experiment: Case study: corked quad, hematoma; assay type: in vivo, human; settings: transdermal 600 mcg per dose twice daily, total 20 ml
Description: The subject was a professional footballer. The athlete incurred a contusion to the rectus femoris adjacent to the central tendon. The MRI indicated an area of 2.0 cm area for the contusion. […] There was a minor degree of associated edema associated with the pathology. The MRI confirmed that there was fibre disruption but no true tear. The central tendon remained intact. The injury was an acute injury. The athlete identified discomfort on weight bearing movement and the mass was easily palpatable. Any hip flexion movement could induce discomfort and awareness of the injury. Although the muscle is not considered a dominant muscle in knee extension movement the affected area was painful and inducing discomfort with such work.
The subject undertook an intervention of AOD9604 (SEQ ID NO: 1) at 600 mcg per dose. They applied one ml twice daily. The transdermal application was at 600 mcg per ml. The total application was 20 ml.

[5] = tested on: fibre disruption at the junction of supraspinatus tendon insertion; experiment: Case study: shoulder tendon; assay type: in vivo, human; settings: transdermal 600 mcg per dose twice daily, total 30 ml
Description: The subject was a professional footballer. The athlete incurred some fibre disruption at the junction of supraspinatus tendon insertion. The MRI indicated an area of 1.0 cm within the disruptive pathology. […] Most of the affected area was the muscular portion of the junction. […] The athlete had been restricted in both the range of motion they could employ for the injured site as well as the amount of weight bearing activity they could engage for the area. They had been finding it difficult to abduct the arm at the shoulder joint.
The subject undertook an intervention of AOD9604 (SEQ ID NO: 1) at 600 mcg per dose. They applied one ml twice daily. The transdermal application was at 600 mcg per ml. The total application was 30 ml.

[6] = tested on: rabbit collagenase model of osteoarthritis; experiment: Rabbit collagenase model of osteoarthritis, intra-articular administration; assay type: in vivo, New Zealand White Rabbit; settings: 4 weekly intra-articular injections of 0.25 mg, 9 weeks post collagenase
Method: AOD9604 (SEQ ID NO: 1) was provided by Metabolic Pharmaceutical Pty Ltd.
Treatments groups: 32 rabbits were each given a 2 mg collagenase injection into their right knee joint, followed by a second injection 3 days later to induce osteoarthritis. After 4 weeks, the rabbits were divided into 4 groups of 8 for subsequent treatments.
Group 1 received 4 weekly injections of vehicle (disease control group).
Group 2 received 4 weekly injections of 6 mg of HA-hyuran-plus (HA positive control group).
Group 3 received 4 weekly injections of 0.25 mg of AOD9604 (AOD only group).
Group 4 received 4 weekly injections of both HA and AOD9604 (combination group).
Clinical observations were made by direct observation daily to assess lameness (as described in Kim et al., (2010) supra). At 9 weeks post initial collagenase injection the animals were euthanized.
Gross observation of the right and left knee joints was performed after dissection and scored for damage (as described in Kim et al., (2010) supra). Histological analysis of lateral and medial condyles from each joint was performed and scored.
A statistical analysis of the data was performed and the results are shown in FIGS. 13 (Group 1), 14 (Group 2), 15 (Group 3) and 16 (Group 4).

[7] = tested on: osteoblast and osteoclast formation; settings: cited from earlier work
[8] = tested on: tear to the long head of bicep femoris; experiment: Case study: hamstring muscle tear; assay type: in vivo, human; settings: transdermal 600 mcg per dose twice daily, total 40 ml
Description: The subject was a professional footballer. The athlete incurred at 2.0 cm tear to the long head of their bicep femoris. […] Some fibre disruption was noted below the tendon junction coming from the insertion. The length of the tear was 1.5 cm. The fusiform belly region around the injury was highly inflamed.
The subject undertook an intervention of AOD9604 (SEQ ID NO: 1) at 600 mcg per dose. They applied one ml twice daily. The transdermal application was at 600 mcg per ml. The total application was 40 ml.

IGF-1 = settings: effective dose, clinical trials; cited from earlier work
C2C12 cells [9] = experiment: C2C12 differentiation into myoblasts (myogenin staining); assay type: cell-based
Method: C2C12 (2×10^3 cells/cm^2) were grown in DMEM and 10% FBS. Differentiation was induced by replacing growth media with differentiation media which consists of DMEM supplemented with 2% horse serum. The cells were grown in the absence or presence of AOD9604 (10 or 100 μg/ml). The cells were fixed in 4% paraformaldehyde and co-stained for myogenin (a muscle specific muscle marker (transcription factor) 1/250 Tris-Triton X buffer) and Bodipy (cytoplasmic stain, Invitrogen, 1/1000 PBS). The number of cells stained for myogenin were counted in 4 random fields (up to 100 cells/field) (n=4). The percent of cells that stained positively for myogenin was calculated.
as §1

[10] = tested on: symptoms consistent with Clostridium tetani infection; design: species or system human; settings: in vivo, sc
[11] = tested on: Chondrocytes isolated from articular cartilage; experiment: Chondrocyte culture on collagen type II-coated filter, cartilage tissue formation; assay type: cell-based, calf; settings: for toxicity to cells as determined by DNA content: 10 or 100 μg/ml, 2 weeks of treatment (3 weeks culture), FIG. 1
Method: Chondrocytes were isolated from articular cartilage obtained aseptically from calf metacarpal-carpal joints and seeded onto collagen type II-coated membrane inserts (Millipore™) (1.5×10^6 cells/12 mm diameter membrane). Chondrocytes were grown in Ham's F-12 supplemented with 5% fetal bovine serum (FBS) under standard culture conditions. After 5 days the serum was increased to 20%. Chondrocytes were then grown in the presence and absence of AOD9604 (SEQ ID NO: 1) (10 or 100 μg/ml) for 2 weeks (total culture time 3 weeks). Fresh AOD was added with each change of media.
as §2, with “and” for “and water content and dry weight measured. The tissue was then”, “nm).” for “nm.”
as §3

For “hGH 177-191: synthetic peptide corresponding to amino acid residues 177-191 of human growth hormone sequence (LRIVQCRSVEGSCGF; UniProt P01241 203-217, looked up, fragment)”, the adipose tissue mass (C57Bl/6J (Ob/Ob) mouse) is given as “reduce” and the body weight gain (C57Bl/6J (Ob/Ob) mouse) is given as “reduce”.
For “YLRIVQCRSVEGSCGF (cysteine pairing not given here) [AOD9604]”, the cell proliferation (C2C12 cells [1]) was “did not affect”, the cell proliferation (C2C12 cells [1]; listed as AOD) was “does not enhance myotube Formation or alter cell proliferation” and the formation of myotubes (C2C12 cells [2]) was “no affect”. The formation of myotubes (C2C12 cells [2]; listed as AOD) was “does not enhance”, the “follow up MRI” value (1.5 cm tear on soleus) was “full integrity had returned to the injury” and the “residual pain or discomfort” value (1.5 cm tear on soleus) was “no residual pain or discomfort”. For the same substance, the resolution of injury (1.5 cm tear on soleus) was “resolved in two weeks”, the “return to weight bearing activities” value (1.5 cm tear on soleus) was “returned to full weight bearing activities” and the “effect on native cartilage” value ([3]; 500 μg/ml, FIGS. 5-8) was “no effect”. For the same substance, the “proteoglycan content of native cartilage” value ([3]; FIGS. 5 and 7) was “does not affect”, the “collagen content of native cartilage” value ([3]; FIGS. 6 and 8) was “does not affect” and the “toxicity / DNA content of native cartilage” value ([3]; up to 500 μg/ml, 2 weeks of treatment, FIG. 4, listed as AOD) was “not toxic; also recorded: no effect”. For the same substance, the “pain or discomfort on resumed weight bearing” value [4] was “no immediate pain or discomfort”, the resolution of injury [4] was “resolved in two weeks” and the “return to weight bearing activity” value [4] was “returned to full weight bearing activity”. For the same substance, the “subsequent MRI” value [4] was “return to full anatomical integrity”, the “residual pain or discomfort” value [5] was “no residual pain or discomfort” and the resolution of injury [5] was “resolved in three weeks”. The “return to weight bearing activities” value [5] was “returned to full weight bearing activities and rotation activity”, the “subsequent MRI” value [5] was “full integrity had returned to the junctional area” and the “regeneration compared to control (histological analysis of condyles)” value [6] was “has regenerative power compared to control”. The formation of osteoclasts [7] was “without an increase”, the osteoblast formation [7] was “increased” and the “follow up MRI” value [8] was “full integrity had returned to the bicep femoris long head”. The “residual pain or discomfort” value [8] was “no residual pain or discomfort”, the resolution of injury [8] was “resolved in three weeks” and the “return to weight bearing activities” value [8] was “returned to full weight bearing activities”. The “plasma level of IGF-1” value (IGF-1) was “did not elevate”, the “differentiation of C2C12 cells into myoblasts” value (from here on “differentiation”) (C2C12 cells [9]; 3 days (72 hours), doses as low as 10 μg/ml, FIG. 10) was “enhances” and the “differentiation” value (C2C12 cells [9]; 3 days (72 hours), doses as low as 10 μg/ml, FIG. 10, listed as AOD) was “induces differentiation”. The “differentiation” value (C2C12 cells [9]; after 24 hours of treatment, FIG. 9) was “induces differentiation”, the pain [10] was “considerably reduced” and the resolution of symptoms [10] was “fully resolved at around day eight”. The return to activity [10] was “resumed full running and moderate weight lifting activity on day eight”, the “proteoglycan content of the tissue” value ([11]; 100 μg/ml, 3 weeks of culture, FIG. 2) was “increasing” and the “collagen content of the tissue” value ([11]; 100 μg/ml, 3 weeks of culture, FIG. 3) was “increasing”. For the same substance, the “toxicity to cells as determined by DNA content” value [11] was “not toxic” and the “toxicity to cells as determined by DNA content” value ([11]; listed as AOD) was “does not have a toxic effect on cells”.
